Measurements reported in PMC8273037 (The Journal of Antibiotics, 2021).
Converted amounts (≈) assume the structure as drawn. “And” between values parts separate entries of the source, which are not always exact repeats. Equal entries are not always repeated. Where two headings read alike, the source gives them in different places. Values belong to the molecule of their own block, whether it stands above or below them.

Assays:
S. aureus and MRSA = conditions: cited from earlier work
E. coli = conditions: cited from earlier work
P. aeruginosa = conditions: cited from earlier work
[1] = test system: Human cytomegalovirus, strain GDGr K17 (resistant isolate); experiment: HCMV resistant isolate cytopathic effect reduction assay; format: cell-based; conditions: for EC50 / EC90: Human betaherpesvirus 5, HFF; for EC50: read-out: EC50 (reduced viral replication by 50%); for EC90: read-out: EC90 (reduced viral replication by 90%)
[2] = test system: Human papillomavirus 11, strain HE611260.1; experiment: HPV-11 NanoLuc reporter replication assay; format: cell-based
[3] = Cytotoxicity in C-33 A cells; format: cell-based; conditions: human
[4] = test system: Klebsiella pneumoniae ATCC 700603 (MDR); experiment: Antibacterial growth inhibition / MIC; format: cell-based; conditions: hit confirmation
[5] = test system: Acinetobacter baumannii ATCC 19606; experiment: Antibacterial growth inhibition / MIC; conditions: hit confirmation
[6] = test system: Herpes simplex virus 1, strain E-377; experiment: HSV-1 cytopathic effect reduction assay; format: cell-based
HIV-1 = conditions: read-out: EC50, inhibition of infectivity of HIV-1 in vitro; cited from earlier work

Molecule: 3-amino-3,4-seco-28-amino-lup-4(23),20(29)-dien
- MIC (S. aureus and MRSA; MRSA, bacteriostatic effect): ≤ 0.25 µg/mL

Molecule: CC1(C)CCC2(C(=O)NCCNCCN)CCC3(C)C(=CCC4C5(C)CCC(=O)C(C)(C)C5CCC43C)C2C1 (stereo not shown) [Oleanonic acid amide with diethylentriamine]
- MIC (E. coli): 25 µM (≈ 13.5 µg/mL)
- MIC (P. aeruginosa): 50 µM (≈ 27 µg/mL)

Molecule: Nc1ccn(C[C@@H](CO)OCP(=O)(O)O)c(=O)n1 [Cidofovir]
- SI50 selectivity index (CC50/EC50) ([1]; HCMV GDGr K17 (resistant isolate), HFF cells): 120
- EC50 [1]: 920 nM
- EC90 [1]: > 30 µM

Molecule: Nc1nc(O)c2ncn(COC(CO)CO)c2n1 [Ganciclovir]
- EC50 [1]: > 150000 nM
- EC90 [1]: > 150 µM

- EC50 ([2]; human papillomavirus 11, C-33-A, read-out: EC50 (reduced viral replication by 50%)): 680 nM
- EC90 ([2]; human papillomavirus 11, C-33-A, read-out: EC90 (reduced viral replication by 90%)): 101 µM
Molecule: Nc1nc2c(ncn2CCOCP(=O)(O)O)c(=O)[nH]1 [9-[2-(Phosphonomethoxy)ethyl]guanine]
- SI50 selectivity index (CC50/EC50) ([2]; HPV-11, C-33 A cells): >221
- CC50 [3]: > 150 µM

Molecule: Colistin sulfate
- MIC, K. pneumoniae [4]: 0.15 µM
- MIC, A. baumannii [5]: 0.15 µM

- EC90 ([6]; Human alphaherpesvirus 1, HFF, read-out: EC90 (reduced viral replication by 90%)): > 150 µM
- EC50 ([6]; read-out: EC50 (reduced viral replication by 50%), HSV-1 E-377, HFF cells): 830 nM
Molecule: Nc1nc2c(ncn2COCCO)c(=O)[nH]1 [Acyclovir]
- SI50 selectivity index (CC50/EC50) ([6]; HSV-1 E-377, HFF cells): >172 and >181

Molecule: C[C@H]1[C@H](C)CC[C@]2(C(=O)O)CC[C@]3(C)C(=CC[C@@H]4[C@@]5(C)CC[C@H](O)C(C)(C)[C@@H]5CC[C@]43C)[C@H]12 [ursolic acid]
- MIC (S. aureus and MRSA; MRSA strain): 64 µg/mL (≈ 140 µM)

Molecule: C=C(C)[C@@H]1CC[C@]2(C(=O)O)CC[C@]3(C)[C@H](CC[C@@H]4[C@@]5(C)CC[C@H](O)C(C)(C)[C@@H]5CC[C@]43C)[C@@H]12 [betulinic acid]
- EC50 (HIV-1): 1400 nM
